Legend:
melanin in skin = assay: whitening action, melanin measurement (Mexameter MX18) on half-face application; format: in vivo, human; conditions: inferred from loss of activity after heat treatment of ozonized glycerin
Procedure: Forty-eight healthy individuals (females, 41 years or older and 59 years or younger) participated as test subjects. The test subjects were well informed with description documents (including a consent form) in advance, and a written consent was acquired from each test subject.
For examination of the whitening action, a test product of Example 2-1A, a test product of Example 2-1B, a test product of Reference Example 2-1A, and a test product of Reference Example 2-1B were prepared.
The test subjects were divided into two groups below (24 test subjects in each group). Each test subject took two pushes (approximately 1 ml) of a test product on the hands and applied the test product to a specified half of the face after every face washing performed twice per day (morning and night). […]
Each test subject was subjected to quintuple melanin measurement for freckle sites in the left and right cheeks on the day of initiation of application of test products (week 0) and 4 weeks and 8 weeks after the initiation of application. […] In addition, the changes of melanin measurement values from those at the initiation of the test were determined. Statistical test was carried out with Student t-test, and cases with p<0.05 were determined to be significant differences. […]

TRPM2 = target: T1, TRPM2 (Homo sapiens, UniProt O94759); assay: TRP channel activation, intracellular Ca2+ in TRPM2 (expressing cells); format: cell-based
T1 construct: expressed in transfected cells
From the text: The TLC1 spot product produced in “(1) Production of Oxidation Reaction Product Containing Cyclic Peroxide According to the First Mode of the Present Invention” was directly used without separation (purification) to examine the TRP channel activation. Hereinafter, […]. Hereinafter, “OG” indicates a product formed by ozone-oxidizing glycerin with an oxygen generator (ozonized glycerin). In production of “OG”, the ozone oxidation of glycerin with an oxygen generator was performed with use of a gas having an ozone concentration of approximately 37000 ppm, which had been obtained through a process in which a high concentration of oxygen (oxygen concentration: 70% or more) was given to air with an oxygen generator and the oxygen was ozonized via an ozone generator, under Conditions A below. Hereinafter, “LOG” indicates a product formed by further oxidizing “OG”. Production of “LOG” by oxidation of “OG” was performed with use of a gas having an ozone concentration of approximately 37000 ppm, which had been obtained through a process in which oxygen from an oxygen tank (oxygen concentration: 99% or more) was ozonized via an ozone generator, under Conditions B below. […]

[1] = positive control, known activity; cited from earlier work
[2] = general statement; cited from earlier work

T1 sequence (O94759 whole entry): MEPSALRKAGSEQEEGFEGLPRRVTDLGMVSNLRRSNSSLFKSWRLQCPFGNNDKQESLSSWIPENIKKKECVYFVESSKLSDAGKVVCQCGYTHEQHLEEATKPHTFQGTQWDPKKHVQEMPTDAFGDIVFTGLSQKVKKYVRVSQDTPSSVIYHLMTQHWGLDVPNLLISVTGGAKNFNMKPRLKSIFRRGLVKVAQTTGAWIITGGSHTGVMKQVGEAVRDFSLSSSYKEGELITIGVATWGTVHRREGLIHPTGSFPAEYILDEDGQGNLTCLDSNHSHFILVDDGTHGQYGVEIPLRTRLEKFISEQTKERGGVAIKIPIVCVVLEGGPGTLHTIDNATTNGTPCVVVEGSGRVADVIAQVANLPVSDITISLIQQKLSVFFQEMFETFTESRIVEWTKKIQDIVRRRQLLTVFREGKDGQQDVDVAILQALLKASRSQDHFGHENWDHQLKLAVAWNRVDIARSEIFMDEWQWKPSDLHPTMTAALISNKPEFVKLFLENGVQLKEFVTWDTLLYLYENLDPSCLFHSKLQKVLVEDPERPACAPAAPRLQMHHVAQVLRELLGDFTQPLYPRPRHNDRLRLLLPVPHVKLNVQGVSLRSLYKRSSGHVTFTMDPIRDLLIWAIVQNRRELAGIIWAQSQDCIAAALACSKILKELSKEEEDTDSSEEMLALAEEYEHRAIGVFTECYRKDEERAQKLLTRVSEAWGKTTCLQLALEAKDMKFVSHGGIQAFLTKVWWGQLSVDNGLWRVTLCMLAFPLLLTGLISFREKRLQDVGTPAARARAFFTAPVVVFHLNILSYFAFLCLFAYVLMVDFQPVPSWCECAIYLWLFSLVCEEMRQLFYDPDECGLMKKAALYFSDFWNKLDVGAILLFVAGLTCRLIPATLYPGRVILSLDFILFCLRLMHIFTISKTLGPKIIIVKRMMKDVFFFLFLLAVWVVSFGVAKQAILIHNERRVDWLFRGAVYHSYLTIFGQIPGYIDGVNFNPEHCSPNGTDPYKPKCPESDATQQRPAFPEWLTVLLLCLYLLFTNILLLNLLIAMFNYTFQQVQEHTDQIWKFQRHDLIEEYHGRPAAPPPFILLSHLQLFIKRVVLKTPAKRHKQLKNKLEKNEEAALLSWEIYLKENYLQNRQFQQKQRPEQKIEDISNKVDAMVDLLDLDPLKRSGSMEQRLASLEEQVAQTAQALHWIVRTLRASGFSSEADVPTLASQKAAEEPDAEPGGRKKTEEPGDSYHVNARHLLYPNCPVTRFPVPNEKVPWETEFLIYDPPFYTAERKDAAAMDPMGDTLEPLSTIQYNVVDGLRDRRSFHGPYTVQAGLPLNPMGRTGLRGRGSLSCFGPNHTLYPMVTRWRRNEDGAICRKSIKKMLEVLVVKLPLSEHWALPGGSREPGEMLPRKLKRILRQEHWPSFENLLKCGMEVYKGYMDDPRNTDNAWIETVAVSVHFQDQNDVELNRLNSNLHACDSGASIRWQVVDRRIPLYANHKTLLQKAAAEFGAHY

## OCC(O)C1OOCOCC1O (single isomer, unassigned) [compound of the chemical formula (1)]
Melanin in skin
  whitening action (inferred active ingredient): active ingredient responsible for the whitening action

## OCC(O)CO [G, glycerin]
TRPM2; 10% by mass aqueous solution, FIG. 1-24
  TRP channel activation (net intracellular Ca2+ increase rates): high TRP channel activation
TRPM2; concentrations (% by mass) of the aqueous solutions changed, FIG. 1-25
  TRP channel activation (net intracellular Ca2+ increase rates): higher TRP channel activation at high concentrations

## O=C(C[n+]1ccsc1)c1ccccc1.[Br-] [PTB, N-phenacylthiazolium bromide]
[1]
  cleavage activity to crosslinking structures formed by AGEs: known to have cleavage activity to crosslinking structures formed by AGEs

## C[C@@H]1CC[C@H]2[C@@H](C)C(=O)O[C@@H]3O[C@@]4(C)CC[C@@H]1[C@]32OO4 [artemisinin]
[2]
  water solubility and liposolubility: neither water-soluble nor liposoluble

Reference: US20250255795A1, “CYCLIC PEROXIDE, OXIDATION REACTION PRODUCT, METHOD FOR PRODUCING OXIDATION REACTION PRODUCT, AND APPLICATIONS OF THESE” (MEDIPLUS PHARMA, INC., priority 2021, published 2025)
